ChEMBL document CHEMBL5131454, “Exploratory studies on soluble small molecule CD4 mimics as HIV entry inhibitors” (Bioorg Med Chem, 2022)
In brackets after ≈: the same amount, converted by molar mass.

Key:
TZM [1] = test: Cytotoxicity against human TZM-bl cells assessed as reduction in cell viability at <100 uM by CellTiter-Glo 2.0 assay; assay type: toxicity, cell-based
[2] = Aqueous solubility of the compound in PBS at pH 7.4 at 25 degC; assay type: physicochemical
[3] = (§1) Cytotoxicity against human TZM-bl cells assessed as reduction in cell viability by CellTiter-Glo 2.0 assay; assay type: toxicity, cell-based; details: TZM-bl cells
TZM [4] = test: as §1; assay type: toxicity, cell-based; details: tzm

SMILES | solubility [2] [mM] | Activity (TZM [1]) | CC50 [3] [µM] | CC50 (TZM [4]) [µM]
COCCOCCOCCOCCOCCOCCOCCOCCOCCOCCOCCOCCNC(=O)CCC(=O)N[C@@H](CCCNC(=N)N)C(=O)NCCN1CCC(NC(=O)C(=O)Nc2ccc(Cl)cc2)CC12CCCCC2.O=C(O)C(F)(F)F.O=C(O)C(F)(F)F (some centres not stated) | > 13 | Non-Toxic | > 300 | –
N=C(N)NCCCCC(=O)NCCN1CCC(NC(=O)C(=O)Nc2ccc(F)nc2)CC12CCCCC2.O=C(O)C(F)(F)F.O=C(O)C(F)(F)F.O=C(O)C(F)(F)F (configuration not stated) | – | Non-Toxic | > 100 | –
COCCOCCOCCOCCOCCOCCOCCOCCOCCOCCOCCOCCNC(=O)CCC(=O)N[C@@H](CCCNC(=N)N)C(=O)NCCN1CCC(NC(=O)C(=O)Nc2ccc(F)nc2)CC12CCCCC2.O=C(O)C(F)(F)F.O=C(O)C(F)(F)F.O=C(O)C(F)(F)F (some centres not stated) | – | Non-Toxic | > 100 | –
CC1(C)CC(NC(=O)C(=O)Nc2ccc(F)nc2)CC(C)(C)N1 | – | – | > 300 | –
CC1(C)CC(NC(=O)C(=O)Nc2ccc(Cl)cc2)CC(C)(C)N1 | – | – | 177 | –

The next lines start with results.

solubility [2] [mM] | SMILES | Activity (TZM [1]) | CC50 [3] [µM] | CC50 (TZM [4]) [µM]
> 50 | N=C(N)NCCCCC(=O)NCCN1CCC(NC(=O)C(=O)Nc2cncc(Cl)c2)CC12CCCCC2.O=C(O)C(F)(F)F.O=C(O)C(F)(F)F.O=C(O)C(F)(F)F (configuration not stated) | Non-Toxic | 279 | –
> 50 | N=C(N)NCCCCC(=O)NCCN1CCC(NC(=O)C(=O)Nc2cncc(F)c2)CC12CCCCC2.O=C(O)C(F)(F)F.O=C(O)C(F)(F)F.O=C(O)C(F)(F)F (configuration not stated) | Non-Toxic | > 300 | –
> 50 | N=C(N)NCCCCC(=O)NCCN1CCC(NC(=O)C(=O)Nc2ccc(Cl)cn2)CC1.O=C(O)C(F)(F)F.O=C(O)C(F)(F)F.O=C(O)C(F)(F)F | Non-Toxic | > 300 | –
> 50 | N=C(N)NCCCCC(=O)NCCN1CCC(NC(=O)CNc2ccc(Cl)cn2)CC1.O=C(O)C(F)(F)F.O=C(O)C(F)(F)F.O=C(O)C(F)(F)F | Non-Toxic | > 300 | –
0.47 (≈ 251 µg/mL) | N=C(N)NCCCCC(=O)NCCN1CCC(NC(=O)C(=O)Nc2ccc(Cl)cc2)CC12CCCCC2 (configuration not stated) | Non-Toxic | – | > 100
> 16.4 | N=C(N)NCCCCC(=O)NCCN1CCC(NC(=O)C(=O)Nc2ccc(Cl)cc2)CC12CCCCC2.O=C(O)C(F)(F)F.O=C(O)C(F)(F)F (configuration not stated) | Non-Toxic | – | 201
